Laboratory results reported in patent US20100010219A1, “METHOD FOR PRODUCING PYRROLIDINE COMPOUND” (JAPAN TOBACCO INC., priority 2006, published 2010).
Counter-ions that a name gives are not always drawn.

Biological target: T1, human HSD-1 (recombinant HSD-1) (Homo sapiens, UniProt P28845)
T1 construct: made in house
Experiment: HSD-1 activity inhibitory action in vitro (SPA, conversion of cortisone to cortisol)
Assay type: biochemical
Conditions: recombinant human HSD-1 expressed using baculovirus system; 10 nM 3H cortisone, 500 μM NADPH; room temperature 90 to 120 min; read-out: hHSD1 (IC50 (nM))

T1 sequence (P28845 whole entry): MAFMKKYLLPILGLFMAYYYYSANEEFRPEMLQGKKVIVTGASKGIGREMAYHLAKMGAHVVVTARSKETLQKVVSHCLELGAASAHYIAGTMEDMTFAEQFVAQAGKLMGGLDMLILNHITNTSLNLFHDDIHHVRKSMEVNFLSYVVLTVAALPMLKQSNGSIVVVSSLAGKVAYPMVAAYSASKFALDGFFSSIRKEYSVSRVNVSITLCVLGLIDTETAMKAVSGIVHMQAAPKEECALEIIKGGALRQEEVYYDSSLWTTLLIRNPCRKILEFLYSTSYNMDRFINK

Compound | IC50 [nM]
COC(=O)N1CCC(n2ncc(C(=O)N3CC[C@@H](c4ccccc4C(F)(F)F)C3)c2C2CC2)CC1 [Example 57, 1-[5-cyclopropyl-1-(1-methoxycarbonylpiperidin-4-yl)-1H-pyrazole-4-carbonyl]-[(S)-3-(2-trifluoromethylphenyl)]pyrrolidine] | < 30
CN(C)CCOC(=O)N1CCC(n2ncc(C(=O)N3CC[C@@H](c4ccccc4C(F)(F)F)C3)c2C2CC2)CC1 [Example 59, 1-{5-cyclopropyl-1-[1-(2-dimethylaminoethoxycarbonyl)piperidin-4-yl]-1H-pyrazole-4-carbonyl}-[(S)-3-(2-trifluoromethylphenyl)]pyrrolidine hydrochloride] | < 30
O=C(c1cnn(C2CCN(C(=O)C3CC3)CC2)c1C1CC1)N1CC[C@@H](c2ccccc2C(F)(F)F)C1 [Example 64, 1-[1-(1-cyclopropanecarbonylpiperidin-4-yl)-5-cyclopropyl-1H-pyrazole-4-carbonyl]-[(S)-3-(2-trifluoromethylphenyl)]pyrrolidine] | < 30
O=C(CO)N1CCC(n2ncc(C(=O)N3CC[C@@H](c4ccccc4C(F)(F)F)C3)c2C2CC2)CC1 [Example 65, 1-{5-cyclopropyl-1-[1-(2-hydroxyacetyl)piperidin-4-yl]-1H-pyrazole-4-carbonyl}-[(S)-3-(2-trifluoromethylphenyl)]pyrrolidine] | < 30
O=C(c1cnn(C2CCN(C(=O)C3(c4ccc(F)cc4)CC3)CC2)c1C1CC1)N1CC[C@@H](c2ccccc2C(F)(F)F)C1 [Example 66, 1-(5-cyclopropyl-1-{1-[1-(4-fluorophenyl)cyclopropanecarbonyl]piperidin-4-yl}-1H-pyrazole-4-carbonyl)-[(S)-3-(2-trifluoromethylphenyl)]pyrrolidine] | < 30
CC(=O)N[C@@H](C)C(=O)N1CCC(n2ncc(C(=O)N3CC[C@@H](c4ccccc4C(F)(F)F)C3)c2C2CC2)CC1 [Example 71, 1-(1-{1-[(S)-2-acetylaminopropionyl]piperidin-4-yl}-5-cyclopropyl-1H-pyrazole-4-carbonyl)-[(S)-3-(2-trifluoromethylphenyl)]pyrrolidine] | < 30
NCC(=O)N1CCC(n2ncc(C(=O)N3CC[C@@H](c4ccccc4C(F)(F)F)C3)c2C2CC2)CC1 [Example 77, 1-{1-[1-(2-aminoacetyl)piperidin-4-yl]-5-cyclopropyl-1H-pyrazole-4-carbonyl}-[(S)-3-(2-trifluoromethylphenyl)]pyrrolidine hydrochloride] | < 30
O=C(c1cnn(C2CCN(C(=O)C3(CO)CC3)CC2)c1C1CC1)N1CC[C@@H](c2ccccc2C(F)(F)F)C1 [Example 78, 1-{5-cyclopropyl-1-[1-(1-hydroxymethylcyclopropanecarbonyl)piperidin-4-yl]-1H-pyrazole-4-carbonyl}-[(S)-3-(2-trifluoromethylphenyl)]pyrrolidine] | < 30
CC(C)(N)C(=O)N1CCC(n2ncc(C(=O)N3CC[C@@H](c4ccccc4C(F)(F)F)C3)c2C2CC2)CC1 [Example 79, 1-{1-[1-(2-amino-2-methylpropionyl)piperidin-4-yl]-5-cyclopropyl-1H-pyrazole-4-carbonyl}-[(S)-3-(2-trifluoromethylphenyl)]pyrrolidine hydrochloride] | < 30
NCCC(=O)N1CCC(n2ncc(C(=O)N3CC[C@@H](c4ccccc4C(F)(F)F)C3)c2C2CC2)CC1 [Example 83, 1-{1-[1-(3-aminopropionyl)piperidin-4-yl]-5-cyclopropyl-1H-pyrazole-4-carbonyl}-[(S)-3-(2-trifluoromethylphenyl)]pyrrolidine hydrochloride] | < 30
CC(C)[C@H](N)C(=O)N1CCC(n2ncc(C(=O)N3CC[C@@H](c4ccccc4C(F)(F)F)C3)c2C2CC2)CC1 [Example 84, 1-(1-{1-[(S)-2-amino-3-methylbutyryl]piperidin-4-yl}-5-cyclopropyl-1H-pyrazole-4-carbonyl)-[(S)-3-(2-trifluoromethylphenyl)]pyrrolidine hydrochloride] | < 30
CC(C)C(=O)NCC(=O)N1CCC(n2ncc(C(=O)N3CC[C@@H](c4ccccc4C(F)(F)F)C3)c2C2CC2)CC1 [Example 87, 1-{5-cyclopropyl-1-[1-(2-isobutyrylaminoacetyl)piperidin-4-yl]-1H-pyrazole-4-carbonyl}-[(S)-3-(2-trifluoromethylphenyl)]pyrrolidine] | < 30
O=C(NCC(=O)N1CCC(n2ncc(C(=O)N3CC[C@@H](c4ccccc4C(F)(F)F)C3)c2C2CC2)CC1)C1CC1 [Example 88, 1-{1-[1-(2-cyclopropanecarbonylaminoacetyl)piperidin-4-yl]-5-cyclopropyl-1H-pyrazole-4-carbonyl}-[(S)-3-(2-trifluoromethylphenyl)]pyrrolidine] | < 30

The next lines start with the values.

IC50 [nM] | Compound
< 30 | CS(=O)(=O)NC(=O)N1CCC(n2ncc(C(=O)N3CC[C@@H](c4ccccc4C(F)(F)F)C3)c2C2CC2)CC1 [Example 56, 1-[5-cyclopropyl-1-(1-methanesulfonylaminocarbonylpiperidin-4-yl)-1H-pyrazole-4-carbonyl]-[(S)-3-(2-trifluoromethylphenyl)]pyrrolidine]
< 30 | O=C(OCCN1CCCCC1)N1CCC(n2ncc(C(=O)N3CC[C@@H](c4ccccc4C(F)(F)F)C3)c2C2CC2)CC1 [Example 60, 1-{5-cyclopropyl-1-[1-(2-piperidin-1-yl-ethoxycarbonyl)piperidin-4-yl]-1H-pyrazole-4-carbonyl}-[(S)-3-(2-trifluoromethylphenyl)]pyrrolidine hydrochloride]
< 30 | O=C(OC1CCNCC1)N1CCC(n2ncc(C(=O)N3CC[C@@H](c4ccccc4C(F)(F)F)C3)c2C2CC2)CC1 [Example 61, 1-{5-cyclopropyl-1-[1-(piperidin-4-yl-oxycarbonyl)piperidin-4-yl]-1H-pyrazole-4-carbonyl}-[(S)-3-(2-trifluoromethylphenyl)]pyrrolidine hydrochloride]
< 30 | CC(=O)N1CCC(OC(=O)N2CCC(n3ncc(C(=O)N4CC[C@@H](c5ccccc5C(F)(F)F)C4)c3C3CC3)CC2)CC1 [Example 63, 1-{1-[1-(1-acetylpiperidin-4-yl-oxycarbonyl)piperidin-4-yl]-5-cyclopropyl-1H-pyrazole-4-carbonyl}-[(S)-3-(2-trifluoromethylphenyl)]pyrrolidine]
< 30 | CN(C)CC(=O)N1CCC(n2ncc(C(=O)N3CC[C@@H](c4ccccc4C(F)(F)F)C3)c2C2CC2)CC1 [Example 67, 1-{5-cyclopropyl-1-[1-(2-dimethylaminoacetyl)piperidin-4-yl]-1H-pyrazole-4-carbonyl}-[(S)-3-(2-trifluoromethylphenyl)]pyrrolidine hydrochloride]
< 30 | CC(=O)NCC(=O)N1CCC(n2ncc(C(=O)N3CC[C@@H](c4ccccc4C(F)(F)F)C3)c2C2CC2)CC1 [Example 68, 1-{1-[1-(2-acetylaminoacetyl)piperidin-4-yl]-5-cyclopropyl-1H-pyrazole-4-carbonyl}-[(S)-3-(2-trifluoromethylphenyl)]pyrrolidine]
< 30 | CC1(C(=O)N2CCC(n3ncc(C(=O)N4CC[C@@H](c5ccccc5C(F)(F)F)C4)c3C3CC3)CC2)CC1 [Example 69, 1-{5-cyclopropyl-1-[1-(1-methylcyclopropanecarbonyl)piperidin-4-yl]-1H-pyrazole-4-carbonyl}-[(S)-3-(2-trifluoromethylphenyl)]pyrrolidine]
< 30 | CC(=O)N[C@H](C(=O)N1CCC(n2ncc(C(=O)N3CC[C@@H](c4ccccc4C(F)(F)F)C3)c2C2CC2)CC1)C(C)C [Example 72, 1-(1-{1-[(S)-2-acetylamino-3-methylbutyryl]piperidin-4-yl}-5-cyclopropyl-1H-pyrazole-4-carbonyl)-[(S)-3-(2-trifluoromethylphenyl)]pyrrolidine]
< 30 | O=C(CC(F)(F)F)N1CCC(n2ncc(C(=O)N3CC[C@@H](c4ccccc4C(F)(F)F)C3)c2C2CC2)CC1 [Example 73, 1-{5-cyclopropyl-1-[1-(3,3,3-trifluoropropionyl)piperidin-4-yl]-1H-pyrazole-4-carbonyl}-[(S)-3-(2-trifluoromethylphenyl)]pyrrolidine]
< 30 | O=C1CC[C@@H](C(=O)N2CCC(n3ncc(C(=O)N4CC[C@@H](c5ccccc5C(F)(F)F)C4)c3C3CC3)CC2)N1 [Example 74, 1-(5-cyclopropyl-1-{1-[(S)-5-oxopyrrolidine-2-carbonyl]piperidin-4-yl}-1H-pyrazole-4-carbonyl)-[(S)-3-(2-trifluoromethylphenyl)]pyrrolidine]
< 30 | CC(=O)NCCC(=O)N1CCC(n2ncc(C(=O)N3CC[C@@H](c4ccccc4C(F)(F)F)C3)c2C2CC2)CC1 [Example 75, 1-{1-[1-(3-acetylaminopropionyl)piperidin-4-yl]-5-cyclopropyl-1H-pyrazole-4-carbonyl}-[(S)-3-(2-trifluoromethylphenyl)]pyrrolidine]
< 30 | CC(C)(CO)C(=O)N1CCC(n2ncc(C(=O)N3CC[C@@H](c4ccccc4C(F)(F)F)C3)c2C2CC2)CC1 [Example 76, 1-{5-cyclopropyl-1-[1-(3-hydroxy-2,2-dimethylpropionyl)piperidin-4-yl]-1H-pyrazole-4-carbonyl}-[(S)-3-(2-trifluoromethylphenyl)]pyrrolidine]
< 30 | O=C(CCCO)N1CCC(n2ncc(C(=O)N3CC[C@@H](c4ccccc4C(F)(F)F)C3)c2C2CC2)CC1 [Example 80, 1-{5-cyclopropyl-1-[1-(4-hydroxybutyryl)piperidin-4-yl]-1H-pyrazole-4-carbonyl}-[(S)-3-(2-trifluoromethylphenyl)]pyrrolidine]
< 30 | CNCC(=O)N1CCC(n2ncc(C(=O)N3CC[C@@H](c4ccccc4C(F)(F)F)C3)c2C2CC2)CC1 [Example 85, 1-{5-cyclopropyl-1-[1-(2-methylaminoacetyl)piperidin-4-yl]-1H-pyrazole-4-carbonyl}-[(S)-3-(2-trifluoromethylphenyl)]pyrrolidine hydrochloride]
